Patent US11491100B2, “Dermal composition comprising chelator and base” (Primal Therapies, Inc., priority 2013, dated 2022)
Where two headings read alike, the source gives them in different places.

Assay: Ranking of candidate chelator and base agents by potency score
Design: key: 1 = most desired, 3 = least desired
From the text: Methods of selecting base and chelator compositions depend on use. Compositions may be determined by ranking base, chelator and enhancer agents, from most desired to least desired, for multiple parameters such as safety, solubility, compatibility, pH, potency, taste, consistency, smell and others.
Non-toxic chelator and base compositions may be ranked according to the desired parameters of potency and approved-for-oral-consumption. A desired parameter such as potency for a candidate chelator or base may be given a score of “1” for most desired and a score of “3” for least desired. In one embodiment, candidate chelators, bases and enhancers may be ranked by FDA approval for oral consumption. Agents with a score of “1” may have approval for the desired indication and a score of “3” may not have approval or may not be approved for the desired indication. The resultant overall score may be tabulated and may be used to facilitate selection.
Microbes were cultured in growth media and plated at 10^3 CFU/well in a 96 well microtiter plate and cultured for 24 h. Wells were then treated with 10-50 μL of media only as control or with media+chelator agents, base agents, acid agents, neutral agents or enhancer agents for 30 min at RT followed by repleation in […] of fresh RPMI pH 7.2. Plates were then incubated for an additional 48-72 h prior to harvest. Wells were washed 3× in PBS and residual biofilm was stained using crystal violet. Wells were washed 4× in PBS and the amount of retained stain was measured. […] Synergistic effects were evaluated and numerous compounds were examined for their ability to synergistically act with chelators to inhibit biofilm formation (examples of some test compounds analyzed for synergy with chelators are presented in Table 2).
Screens of base components to use in compositions comprising chelator were performed. Briefly, the pH of S. mutans cultures were measured 24 and 48 hr post administration of chelator and candidate base components. Combinations of chelator, base and enhancer agents were also evaluated for affecting metabolic activity and/or metabolism of S. mutans (FIG. 3).

[1] = base agents that may be used in combination with chelators
[2] = chelators that may be used in combination with base agents

Row | Molecule | POTENCY (score 1-3) [1] | POTENCY (score 1-3) [2] | also measured
1 | protamine sulfate | 2 |  | 
2 | Deferoxamines |  | 1 | 
3 | O=c1cc[nH]c(=O)[nH]1 [Uracil] | 3 |  | 
4 | O=C(OC[C@H]1O[C@@H](OC(=O)c2cc(O)c(O)c(OC(=O)c3cc(O)c(O)c(O)c3)c2)[C@H](OC(=O)c2cc(O)c(O)c(OC(=O)c3cc(O)c(O)c(O)c3)c2)[C@@H](OC(=O)c2cc(O)c(O)c(OC(=O)c3cc(O)c(O)c(O)c3)c2)[C@@H]1OC(=O)c1cc(O)c(O)c(OC(=O)c2cc(O)c(O)c(O)c2)c1)c1cc(O)c(O)c(OC(=O)c2cc(O)c(O)c(O)c2)c1 [Tannic acid] |  | 1 | 
5 | OCN(CO)CO [Tris (hydroxymethyl) amine] | 2 |  | 
6 | Lysozyme | 1 |  | 
7 | NC(CO)(CO)CO [Tris amine] | 2 |  | 
8 | O=C(O)CN(CCOCCOCCN(CC(=O)O)CC(=O)O)CC(=O)O [EGTA] |  | 1 | 
9 | O=c1c(O)c(-c2ccc(O)c(O)c2)oc2cc(O)cc(O)c12 [Quercetin] |  | 1 | 
10 | O=S(=O)(O)CC(S)CS (centres unmarked) [DMPS] |  | 1 | 
11 | NCCCC[C@H](N)C(=O)O [Lysine] |  |  | POTENCY (score 1-3): 2
12 | Cc1ncc(COP(=O)(O)O)c(C=O)c1O [Pyridoxal-5-phosphate] | 1 |  | 
13 | Chlorophylls |  | 1 | 
14 | Ferrioxamines |  | 1 | 
15 | CC(=O)N(O)CCC[C@@H]1NC(=O)[C@H](CCCN(O)C(C)=O)NC1=O [Rhodotorulic acid] |  | 1 | 
16 | Cyclodextrins |  | 1 | 

Row | Molecule | POTENCY (score 1-3) [1] | POTENCY (score 1-3) [2] | also measured
17 | NC(N)=Nc1nc(CSCCC(N)=NS(N)(=O)=O)cs1 [Famotidine, reference compound] | 1 |  | 
18 | OC[C@H]1O[C@H](O[C@H]2[C@H](O)[C@@H](O)[C@H](O)O[C@@H]2CO)[C@H](O)[C@@H](O)[C@@H]1O [D-maltose] | 1 |  | 
19 | O=P(O)(O)O[C@H]1[C@H](OP(=O)(O)O)[C@@H](OP(=O)(O)O)[C@H](OP(=O)(O)O)[C@@H](OP(=O)(O)O)[C@H]1OP(=O)(O)O [Inositol hexaphosphate] |  | 2 | 
20 | O=P([O-])([O-])O.[Ca+2] [Dibasic calcium phosphate] | 3 |  | 
21 | Vitamin B12 | 2 | 1 | 
22 | Oc1ccc(C=Cc2cc(O)cc(O)c2)cc1 [Resveratrol] |  | 2 | 
23 | CC(=O)N(O)CCCCCNC(=O)CCC(=O)N(O)CCCCCNC(=O)CCC(=O)N(O)CCCCCN [Deferasiroxamine B] |  | 1 | 
24 | Vitamin K | 1 |  | 
25 | Cc1ncc(CO)c(CO)c1O [Pyridoxine] | 1 |  | 
26 | O=C(O[C@@H]1Cc2c(O)cc(O)cc2O[C@@H]1c1cc(O)c(O)c(O)c1)c1cc(O)c(O)c(O)c1 [EGCG] |  | 1 | 
27 | O=C(O)[C@@H](S)[C@@H](S)C(=O)O [DMSA] |  | 1 | 
28 | Anachelins |  | 1 | 
29 | COc1cc(/C=C/C(=O)CC(=O)/C=C/c2ccc(O)c(OC)c2)ccc1O [Curcumin] |  | 2 | 
30 | Cc1ncc(CO)c(CN)c1O [Pyridoxamine] | 1 |  | 
31 | CNC(=C[N+](=O)[O-])NCCSCc1ccc(CN(C)C)o1 [Remitidine, reference compound] | 1 |  | 
